The assay has as its target Cyclin-dependent kinase 2 (Homo sapiens, UniProt P24941). In words: Inhibition of Cyclin-dependent kinase 2 (CDK2).

Our source for the IC50 values is BindingDB's records for doi:10.1021/jm0205043 (University of California, 2003).

The term IC50 denotes the point on the concentration scale where inhibition reaches its midpoint. The low end stands for higher potency, the high end for lower potency. As to `CN1CCC(c2c(O)cc(O)c3c(O)c(Cc4ccc([N+](=O)[O-])cc4)oc23)CC1` [4,6-Dihydroxy-7-(1-methyl-piperidin-4-yl)-2-(4-nitro-benzylidene)-benzofuran-3-one], the concentration for half-maximal inhibition (IC50) turned out to be 310 nM.
